The results in this text go back to ChEMBL document CHEMBL5390218, “Benzimidazole derivatives as tubulin polymerization inhibitors: Design, synthesis and in vitro cytotoxicity studies” (Bioorg Med Chem Lett, 2023).

Data set [1] deals with SK-MEL-28. As to the kind of experiment: Inhibition of colony formation in human SK-MEL-28 cells incubated for 48 hrs by crystal violet staining based colony formation assay. Conditions: dose 1-5 µM. Format: functional, cell-based.
Data set [2] deals with SK-MEL-28. As to the kind of experiment: Induction of morphological changes in human SK-MEL-28 cells assessed as chromatin condensation at 1 to 5 uM measured after 48 hrs DAPI staining based analysis. Format: functional, cell-based. The settings on record: dose 1-5 µM.
The test system of another data set is B16-F10. Briefly: Anticancer activity against mouse B16-F10 cells assessed as inhibition in cell growth measured after 72 hrs by MTT assay. Conditions: B16-F10, 72 h. Format: functional, cell-based.
Data set [3] deals with SK-MEL-28. Briefly: Induction of apoptosis in human SK-MEL-28 cells assessed as late apoptotic cells at 2.5 uM incubated for 24 hrs by Annexin V-FITC/PI dual staining based flow cytometry analysis (reference value: 0.1%). Format: functional. On the technique in general: Flow cytometry measures light scatter and fluorescence of single cells or particles in a stream.
Data set [4] concerns the target T1, Tubulin (Homo sapiens) (UniProt P68371+Q9H4B7+P0DPH7+P68366+Q13509+Q71U36+P04350+Q3ZCM7+P07437+P68363+Q9BQE3+Q6PEY2+Q13885+Q9BVA1+Q9BUF5). As to the kind of experiment: Inhibition of tubulin polymerization (unknown origin) at 12 uM incubated for 1 hr relative to control. Format: protein-complex assay.
In data set [5] the test system is SK-MEL-28. As to the kind of experiment: Induction of apoptosis in human SK-MEL-28 cells assessed as early apoptotic cells at 5 uM incubated for 24 hrs by Annexin V-FITC/PI dual staining based flow cytometry analysis (reference value: 0.0%). Format: functional.
For data set [6], the system named is SK-MEL-28. As to the kind of experiment: Induction of apoptosis in human SK-MEL-28 cells assessed as early apoptotic cells at 2.5 uM incubated for 24 hrs by Annexin V-FITC/PI dual staining based flow cytometry analysis (reference value: 0.0%). Format: functional.
The test system of data set [7] is SK-MEL-28. As to the kind of experiment: Inhibition of cell migration in human SK-MEL-28 cells at 1 to 5 uM incubated for 0 to 48 hrs by phase-contrast microscopy. Format: functional, cell-based. Conditions: dose 1-5 µM, time 0-48 hrs.
Data set [8] concerns SK-MEL-28. As to the kind of experiment: Anticancer activity against human SK-MEL-28 cells assessed as inhibition in cell growth measured after 72 hrs by MTT assay. Conditions: SK-MEL-28, 72 h. Format: functional, cell-based. Background: Tetrazolium dyes change colour on reduction, which living cells bring about.
Data set [9] concerns the target T1, Tubulin (Homo sapiens). As to the kind of experiment: (§1) Inhibition of tubulin polymerization (unknown origin) incubated for 1 hr. Format: protein-complex assay. Conditions: dose 0.75-12 µM.
Another data set addresses Tubulin. The data set is described as §1. Format: protein-complex assay, Homo sapiens.
Data set [10] relates to SK-MEL-28. As to the kind of experiment: Induction of morphological changes in human SK-MEL-28 cells assessed as membrane blebbing by ethidium bromide/acridine orange staining based analysis. Format: functional, cell-based. The settings on record: dose 1-5 µM.
Data set [11] deals with SK-MEL-28. As to the kind of experiment: Induction of mitochondrial membrane potential changes in human SK-MEL-28 cells assessed as J-aggregate level by measuring red fluorescence intensity at 5 uM incubated for 48 hrs by JC-1 staining based analysis (reference value: 98.9%). Format: functional.
For data set [12], the system named is SK-MEL-28. Briefly: Induction of morphological changes in human SK-MEL-28 cells assessed as nuclear shrinkage at 1 to 5 uM measured after 48 hrs DAPI staining based analysis. Format: functional, cell-based. The settings on record: dose 1-5 µM.
The test system of data set [13] is SK-MEL-28. As to the kind of experiment: Induction of mitochondrial membrane potential changes in human SK-MEL-28 cells assessed as J-aggregate level by measuring red fluorescence intensity at 1 uM incubated for 48 hrs by JC-1 staining based analysis (reference value: 98.9%). Format: functional.
For data set [14], the system named is SK-MEL-28. As to the kind of experiment: Induction of mitochondrial membrane potential depolarization in human SK-MEL-28 cells assessed as J-monomer level by measuring green fluorescence intensity at 1 uM incubated for 48 hrs by JC-1 staining based analysis (reference value: 0.8%). Format: functional.
Data set [15] has as its system SK-MEL-28. Briefly: Induction of apoptosis in human SK-MEL-28 cells assessed as early apoptotic cells at 1 uM incubated for 24 hrs by Annexin V-FITC/PI dual staining based flow cytometry analysis (reference value: 0.0%). Format: functional.
In data set [16] the test system is SK-MEL-28. Briefly: Induction of morphological changes in human SK-MEL-28 cells assessed as cell shrinkage by ethidium bromide/acridine orange staining based analysis. Format: functional. Conditions: dose 1-5 µM.
A further data set relates to MCF7. Briefly: Anticancer activity against human MCF7 cells assessed as inhibition in cell growth measured after 72 hrs by MTT assay. The settings on record: MCF7, 72 h. Format: functional, cell-based.
In another data set the test system is A549. As to the kind of experiment: Anticancer activity against human A549 cells assessed as inhibition in cell growth measured after 72 hrs by MTT assay. Format: functional, cell-based. The settings on record: A549, 72 h.
The nature of data set [17]: Cytotoxicity against NRK-52E cells assessed as inhibition in cell growth measured after 72 hrs by MTT assay. Format: toxicity, cell-based. The settings on record: rat.
In data set [18] the test system is SK-MEL-28. As to the kind of experiment: Induction of cell cycle arrest in human SK-MEL-28 cells assessed as accumulation of cells at G0-G1 phase at 2.5 uM measured after 48 hrs by PI staining based flow cytometry (reference value: 74.32%). Format: functional.
The subject of data set [19] is SK-MEL-28. As to the kind of experiment: Induction of mitochondrial membrane potential depolarization in human SK-MEL-28 cells assessed as J-monomer level by measuring green fluorescence intensity at 2.5 uM incubated for 48 hrs by JC-1 staining based analysis (reference value: 0.8%). Format: functional.
Data set [20] can be described thus: Selectivity index, ratio of IC50 for NRK-52E cells to ratio of IC50 for human MCF7 cells. Format: toxicity. Conditions: rat (NRK-52E), NRK-52E cells versus MCF7 cells, read-out: Selectivity Index.

Molecules are shown by their SMILES. The source made the active and inactive calls. No cut-off for these calls is given here.

Consider `COc1cc(-c2nc3cc(F)ccc3[nH]2)ccc1OCC(=O)N1CCc2ccccc21`, for which the inhibition entry in the data set on SK-MEL-28 [1] is “Dose-Dependent Effect”; at Tubulin (Homo sapiens) [4] it was 64.1%; at Tubulin (Homo sapiens) [9] it was “Dose-Dependent Effect”. Also, the outcome with SK-MEL-28 [2] and in the data set on SK-MEL-28 [12] was Active. Besides, the IC50 in the data set on B16-F10 is 3.1 µM; with SK-MEL-28 [8], 2.69 µM; on Tubulin, 5.65 µM; with MCF7 it was 17.9 µM; in the data set with A549 it was 3.84 µM. Also, the Activity in the data set on SK-MEL-28 [3] is 20.2%; in the data set on SK-MEL-28 [5] it was 1.3%; in the data set with SK-MEL-28 [6], 26.4%; in the data set on SK-MEL-28 [10], “Dose-Dependent Effect”; in the data set on SK-MEL-28 [11], 85.1%; with SK-MEL-28 [13], 97.9%. For the same compound, the Activity with SK-MEL-28 [14] was 2%; in the data set on SK-MEL-28 [15], 60.8%; in the data set on SK-MEL-28 [16], “Dose-Dependent Effect”; in the data set with SK-MEL-28 [18] it was 51.45%; with SK-MEL-28 [19], 3.2%. Further, in the data set on SK-MEL-28 [7], the inhibition entry was “Active”. The IC50 at 72 h in [17] came out at 53.8 µM. Moreover, the selectivity ratio in [20] is 3.

For orientation: inhibition means the percentage by which the read-out fell short of the control. One may read the IC50 as the concentration at which inhibition is half-maximal.
